From ChEMBL document CHEMBL1132399, “Synthesis of novel orthoalkylaminophenol derivatives as potent neuroprotective agents in vitro” (Bioorg Med Chem Lett, 1999)

How the values were obtained:
HT-22 [1] = test: Maximum tolerated concentration required for neurotoxicity on murine HT-22 hippocampal cell culture, monitored by LDH assay tested in vitro; assay type: functional, Mus musculus
[2] = Safety index (MTC/PC50); assay type: toxicity; conditions: read-out: Safety index
HT-22 [3] = test: Tested in vitro for neurotoxicity on murine HT-22 hippocampal cell culture, monitored by LDH assay.; assay type: functional; conditions: Mus musculus, read-out: TC50 (the source's name)
HT-22 [4] = test: Maximum tolerated concentration required for neurotoxicity on murine HT-22 hippocampal cell culture, monitored by MTT reduction assay tested in vitro; assay type: functional, Mus musculus
HT-22 [5] = test: Tested in vitro for neurotoxicity on murine HT-22 hippocampal cell culture, monitored by MTT reduction assay; assay type: functional; conditions: Mus musculus, read-out: TC50 (the source's name)
HT-22 [6] = test: Tested in vitro for its neuroprotective activity against L-homocysteic acid(L-HCA) cytotoxicity, in murine HT-22 hippocampal cell culture, monitored by LDH assay.; assay type: functional, Mus musculus
HT-22 [7] = test: Compound was tested in vitro for its neuroprotective activity against L-homocysteic acid(L-HCA) cytotoxicity in murine HT-22 hippocampal cell culture monitored by MTT reduction assay; assay type: functional, Mus musculus
HT-22 [8] = test: Tested in vitro for its neuroprotective activity against L-homocysteic acid(L-HCA) cytotoxicity, in murine HT-22 hippocampal cell culture, monitored by MTT reduction assay; assay type: functional, Mus musculus

Row | Compound | MTC (HT-22 [1]) | selectivity ratio [2] | CC50 (HT-22 [3]) | MTC (HT-22 [4]) | CC50 (HT-22 [5]) | PC50 (HT-22 [6]) | PC50 (HT-22 [7]) | PC50 (HT-22 [8])
1 | Cc1c(C)c2c(c(C)c1O)CC[C@@](C)(CCC[C@H](C)CCC[C@H](C)CCCC(C)C)O2 [ALPHA-TOCOPHEROL] | >200 µM | > 250 | > 200 µM | >200 µM | > 200 µM | 1.7 µM | 0.8 µM | 
2 | O=C(c1cc(O)c(O)c(O)c1)c1ccc(O)c(O)c1O [EXIFONE] | 50 µM |  | 91 µM | 10 µM | 34 µM | >10 µM |  | >10 µM
